Read-outs that look alike come from different tables or passages of the source.
Columns and labels:
[1] = system: Klebsiella pneumoniae M6; test: Broth microdilution MIC; type: cell-based
Procedure: (§1) Assays were carried out by a broth microdilution method using a 96-well plate according to guidelines defined by the European Committee on Antimicrobial Susceptibility Testing as described here. Overnight cultures of strains were grown in tryptic soy broth (TSB) at 37° C. The overnight cultures were diluted to a concentration of 1×10^6 bacteria/ml (OD600=0.01) in TSB media. To each well on 96 well plates, 100 μl of bacterially infected media at a concentration of 1×10^6/ml and compounds at various concentrations were added. An uninfected control (i.e. no bacteria) was also included. The plates were incubated at 37° C. wrapped in parafilm for 20 hrs. The growth was assessed by measuring the absorbance at 600 nm. The minimum inhibitory concentration (MIC) was determined to be the lowest concentration of compound that inhibits visible bacterial growth.

[2] = system: Enterococcus faecium 12204; test: Broth microdilution MIC; type: cell-based
Procedure: as §1

[3] = system: MSSA 9144; test: Broth microdilution MIC; type: cell-based; conditions: Staphylococcus aureus
Procedure: as §1

[4] = system: Pseudomonas aeruginosa PA01; test: Broth microdilution MIC; type: cell-based
Procedure: as §1

[5] = system: Klebsiella pneumoniae 13368; test: Broth microdilution MIC; type: cell-based
Procedure: as §1

[6] = system: EMRSA-15; test: Broth microdilution MIC; type: cell-based
Procedure: as §1

[7] = system: Enterococcus faecalis 12201; test: Broth microdilution MIC; type: cell-based
Procedure: as §1

[8] = system: Acinetobacter baumannii 17978; test: Broth microdilution MIC; type: cell-based
Procedure: as §1

[9] = system: Pseudomonas aeruginosa 13437; test: Broth microdilution MIC; type: cell-based
Procedure: as §1

[10] = system: Enterococcus faecalis 775; test: Broth microdilution MIC; type: cell-based
Procedure: as §1

[11] = system: Escherichia coli NCTC12923; test: Broth microdilution MIC; type: cell-based
Procedure: as §1

[12] = system: EMRSA-16; test: Broth microdilution MIC; type: cell-based
Procedure: as §1

[13] = system: Acinetobacter baumannii AYE; test: Broth microdilution MIC; type: cell-based
Procedure: as §1

[14] = system: T1, A. thaliana DHDPS; test: DHDPS-DHDPR coupled assay, dose response inhibitor assay; type: biochemical, Arabidopsis thaliana
T1 construct: AtDHDPS|10|0.00008; no borders, domain or tags given
Procedure: DHDPS enzyme activity was determined using the coupled assay in a Cary 4000 UV/Vis spectrophotometer at 340 nm in 1 cm acrylic cuvettes. A master mix was prepared for each reaction as per Table 1. Reaction mixtures containing enzymes, pyruvate, buffer and NADPH were incubated at 30° C. for 12 mins before the addition of ASA to initiate the reaction. The oxidation of NADPH to NADP^+ was then monitored at 340 nm at 30° C. as a function of time. The initial rate (ΔA340·min^−1) was calculated from the slope of the linear portion of the A340 versus time profile. All experiments were carried out in triplicate. The enzyme kinetic parameters, including KM values, were determined using the Michaelis-Menten equation (Equation 1). Unless otherwise stated, all kinetic data were fitted using the built-in equations in GraphPad Prism.
To determine/C50 values for the inhibitors, A. thaliana DHDPS enzyme activity was measured using the coupled assay (detailed above) in the presence of increasing concentrations of inhibitor. The initial rate was then plotted as a function of the log 10 of the inhibitor concentration and the/C50 determined according to Equation 2.

[15] = Klebsiella pneumoniae M6, replicate 1, read-out: MIC #1
[16] = Klebsiella pneumoniae M6, replicate 2, read-out: MIC #2
[17] = Klebsiella pneumoniae M6, replicate 3, read-out: MIC #3
[18] = Enterococcus faecium 12204, replicate 1, read-out: MIC #1
[19] = Enterococcus faecium 12204, replicate 2, read-out: MIC #2
[20] = Enterococcus faecium 12204, replicate 3, read-out: MIC #3
[21] = MSSA 9144, replicate 1, read-out: MIC #1
[22] = MSSA 9144, replicate 2, read-out: MIC #2
[23] = MSSA 9144, replicate 3, read-out: MIC #3
[24] = Pseudomonas aeruginosa PA01, replicate 1, read-out: MIC #1
[25] = Pseudomonas aeruginosa PA01, replicate 2, read-out: MIC #2
[26] = Pseudomonas aeruginosa PA01, replicate 3, read-out: MIC #3
[27] = Klebsiella pneumoniae 13368, replicate 1, read-out: MIC #1
[28] = Klebsiella pneumoniae 13368, replicate 2, read-out: MIC #2
[29] = Klebsiella pneumoniae 13368, replicate 3, read-out: MIC #3
[30] = EMRSA-15, replicate 1, read-out: MIC #1
[31] = EMRSA-15, replicate 2, read-out: MIC #2
[32] = EMRSA-15, replicate 3, read-out: MIC #3
[33] = Enterococcus faecalis 12201, replicate 1, read-out: MIC #1
[34] = Enterococcus faecalis 12201, replicate 2, read-out: MIC #2
[35] = Enterococcus faecalis 12201, replicate 3, read-out: MIC #3
[36] = Acinetobacter baumannii 17978, replicate 1, read-out: MIC #1
[37] = Acinetobacter baumannii 17978, replicate 2, read-out: MIC #2
[38] = Acinetobacter baumannii 17978, replicate 3, read-out: MIC #3
[39] = Pseudomonas aeruginosa 13437, replicate 1, read-out: MIC #1
[40] = Pseudomonas aeruginosa 13437, replicate 2, read-out: MIC #2
[41] = Pseudomonas aeruginosa 13437, replicate 3, read-out: MIC #3
[42] = Enterococcus faecalis 775, replicate 1, read-out: MIC #1
[43] = Enterococcus faecalis 775, replicate 2, read-out: MIC #2
[44] = Enterococcus faecalis 775, replicate 3, read-out: MIC #3
[45] = Escherichia coli NCTC12923, replicate 1, read-out: MIC #1
[46] = Escherichia coli NCTC12923, replicate 2, read-out: MIC #2
[47] = Escherichia coli NCTC12923, replicate 3, read-out: MIC #3
[48] = EMRSA-16, replicate 1, read-out: MIC #1
[49] = EMRSA-16, replicate 2, read-out: MIC #2
[50] = EMRSA-16, replicate 3, read-out: MIC #3

SMILES | MIC [1, 15] [mg/L] | MIC [1, 16] [mg/L] | MIC [1, 17] [mg/L] | MIC [2, 18] [mg/L] | MIC [2, 19] [mg/L] | MIC [2, 20] [mg/L] | MIC [3, 21] [mg/L] | MIC [3, 22] [mg/L] | MIC [3, 23] [mg/L] | MIC [4, 24] [mg/L] | MIC [4, 25] [mg/L] | MIC [4, 26] [mg/L] | MIC [5, 27] [mg/L] | MIC [5, 28] [mg/L] | MIC [5, 29] [mg/L] | MIC [6, 30] [mg/L] | MIC [6, 31] [mg/L] | MIC [6, 32] [mg/L] | MIC [7, 33] [mg/L] | MIC [7, 34] [mg/L] | further results
COc1ccccc1/C=C1\SC(=O)N(CC(=O)O)C1=O [Compound 3, (Z)-2-(5-(2-Methoxybenzylidene)-2,4-dioxothiazolidin-3-yl)acetic Acid] | > 64 | > 64 | > 64 | > 64 | > 64 | > 64 | > 64 | > 64 | > 64 | > 64 | > 64 | > 64 | > 64 | > 64 | > 64 | > 64 | > 64 | > 64 | > 64 | > 64 | MIC [7, 35]: > 64 mg/L; MIC [8, 36]: > 64 mg/L; MIC [8, 37]: > 64 mg/L; MIC [8, 38]: > 64 mg/L; MIC [9, 39]: > 64 mg/L; MIC [9, 40]: > 64 mg/L; MIC [9, 41]: > 64 mg/L; MIC [10, 42]: > 64 mg/L; MIC [10, 43]: > 64 mg/L; MIC [10, 44]: > 64 mg/L; MIC [11, 45]: > 64 mg/L; MIC [11, 46]: > 64 mg/L; MIC [11, 47]: > 64 mg/L; MIC [12, 48]: > 64 mg/L; MIC [12, 49]: > 64 mg/L; MIC [12, 50]: > 64 mg/L; MIC ([13]; replicate 1, read-out: MIC #1): > 64 mg/L; MIC ([13]; replicate 2, read-out: MIC #2): > 64 mg/L; MIC ([13]; replicate 3, read-out: MIC #3): > 64 mg/L; IC50 [14]: 70.5 µM
COc1ccc(/C=C2\SC(=O)N(CC(=O)O)C2=O)cc1 [Compound 5, (Z)-2-(5-(4-Methoxybenzylidene)-2,4-dioxothiazolidin-3-yl)acetic Acid] | > 64 | > 64 | > 64 | > 64 | > 64 | > 64 | > 64 | > 64 | > 64 | > 64 | > 64 | > 64 | > 64 | > 64 | > 64 | > 64 | > 64 | > 64 | > 64 | > 64 | MIC [7, 35]: > 64 mg/L; MIC [8, 36]: > 64 mg/L; MIC [8, 37]: > 64 mg/L; MIC [8, 38]: > 64 mg/L; MIC [9, 39]: > 64 mg/L; MIC [9, 40]: > 64 mg/L; MIC [9, 41]: > 64 mg/L; MIC [10, 42]: > 64 mg/L; MIC [10, 43]: > 64 mg/L; MIC [10, 44]: > 64 mg/L; MIC [11, 45]: > 64 mg/L; MIC [11, 46]: > 64 mg/L; MIC [11, 47]: > 64 mg/L; MIC [12, 48]: > 64 mg/L; MIC [12, 49]: > 64 mg/L; MIC [12, 50]: > 64 mg/L; MIC ([13]; replicate 1, read-out: MIC #1): > 64 mg/L; MIC ([13]; replicate 2, read-out: MIC #2): > 64 mg/L; MIC ([13]; replicate 3, read-out: MIC #3): > 64 mg/L; IC50 [14]: 46.9 µM

Reference: patent US20200068890A1 (Person to Whom the Inventor is Obligated to Assign, priority 2017, published 2020)
